Values after ≈ are worked out from the molar mass of the structure shown.

The term IC50 denotes the concentration that inhibits the measured activity by half. The term MIC denotes the lowest concentration found to suppress growth.

The test system of one test is Human alphaherpesvirus 2. In words: Antiviral activity against Herpes simplex virus 2 infected in African green monkey Vero cells assessed as inhibition of virus-induced cytopathogenic effect after 24 hrs by crystal violet staining based assay. Format: functional, organism-based. The conditions noted are these: Human alphaherpesvirus 2, Vero. (In general: Damage to the host cells serves as the signal in cytopathic effect assays.)
For `CO[C@H]1CC(=O)[C@@H]2C[C@@]3(SC)C(=O)N4[C@@H]5[C@@H](O)[C@H]6CC(=O)[C@@H]5C[C@@]4(S6)C(=O)N3[C@@H]2[C@H]1O`, the IC50 was found to be 29 µM.

As for `O=C1C[C@H]2SS[C@@]34C[C@@H]1[C@@H]([C@H]2O)N3C(=O)c1cc2cc(O)ccc2n1C4=O`, the half-maximal inhibitory concentration (IC50) is 70 µM.

For the molecule `CS[C@@]12C[C@H]3C(=O)C=C[C@H](O)[C@H]3N1C(=O)[C@@]13C[C@H]4C(=O)C[C@@H](SS1)[C@H](O)[C@H]4N3C2=O`, the 50% inhibitory concentration (IC50) was 64 µM.

For the molecule `Nc1nc2c(ncn2COCCO)c(=O)[nH]1` [ACYCLOVIR], the 50% inhibitory concentration (IC50) stood at 31 µM.

A further test deals with Bacillus subtilis. The test is described as follows: Growth inhibition of Bacillus subtilis. Format: functional.
Conditions: not given
As to `CO[C@H]1CC(=O)[C@@H]2C[C@@]3(SC)C(=O)N4[C@@H]5[C@@H](O)[C@H]6CC(=O)[C@@H]5C[C@@]4(S6)C(=O)N3[C@@H]2[C@H]1O`, the minimal inhibitory concentration (MIC) was 25 µM (≈ 11.7 µg/mL).

As for `CO[C@H]1CC(=O)[C@@H]2C[C@@]3(SC)C(=O)N4[C@@H]5[C@@H](O)[C@H]6CC(=O)[C@@H]5C[C@@]4(SS6)C(=O)N3[C@@H]2[C@H]1O`, the lowest concentration to inhibit growth (MIC) was 13 µM (≈ 6.51 µg/mL).

The values above are taken from ChEMBL document CHEMBL4602665, “Amphiepicoccins A-J: Epipolythiodioxopiperazines from the Fish-Gill-Derived Fungus Epicoccum nigrum HDN17-88” (J Nat Prod, 2020).
